Assay results taken from patent US9434695B2, “Nitrogenous heterocyclic derivatives and their application in drugs” (SUNSHINE LAKE PHARMA CO., LTD., priority 2012, dated 2016).

Tested on: BHK-21 cells
Test: inhibition of BHK-21 cell proliferation (CCK-8, optical density at 450 nm)
Assay type: cell-based
Conditions: for IC50: Mesocricetus auratus, inhibition ratio of cell proliferation, 48 hours after dosing, CCK-8; for The ratio with PFD (multiple): ratio of Pirfenidone IC50 from the compound IC50, the bigger the multiple, the better the vitro inhibitory activity, 48 hours
Method: Taking BHK-21 cells which in exponential growth phase, collecting and counting the cells which had digestive transfer culture after fusion growth 85-95%, adjusting the cell density to 2×10^4 cells per milliliter, seeding the cells into 96-well plates, 100 μl/well, the cells were incubated in a 5% CO2 incubator at 37° C.
The upper clear liquid of the 96-well plates was removed after the cells adhering to the wall 24 hours. The above compounds were confected into solutions of different concentration and the solutions were added to the wells, 100 μl/well. Each concentration solution in 3 replicates, the cells were subcultured 48 hours after dosing.
3. Testing the Optical Density
10 μl of CCK-8 solution was added to each well 48 hours after dosing, and incubated for 2 hours. The optical density (A) of each well was determined by a microplate reader at 450 nm wavelength. Calculating the inhibition ratio of cell proliferation of each compound is based on A and the inhibition ratio of cell proliferation (inhibition ratio, IR)=(1−value of experimental group (Ai)/value of control group (Ao))×100% and the IC50 of each compound at 48 hours was calculated by data processing software.

Structure (SMILES) | IC50 | The ratio with PFD (multiple)
Cc1cc(=O)n(-c2ccc(N3CCOCC3)c(F)c2)c(COc2cccc(F)c2)n1 [Example 20, 3-(3-fluoro-4-morpholinophenyl)-2-((3-fluorophenoxy)methyl)-6-methylpyrimidin-4(3H)-one] | 40 µM | 95.70 multiple
Cc1cc(=O)n(-c2ccc(NCCCn3ccnc3)c(F)c2)c(C)n1 [Example 35, 3-(4-((3-(1H-imidazol-1-yl)propyl)amino)-3-fluorophenyl)-2,6-dimethylpyrimidin-4(3H)-one] | 3010 µM | 2.60 multiple
Cc1cc(=O)n(-c2ccc(N3CCCCC3)c(F)c2)c(C)n1 [Example 11, 3-(3-fluoro-4-(piperidin-1-yl)phenyl)-2,6-dimethylpyrimidin-4(3H)-one] | 1320 µM | 2.91 multiple
Cc1cc(=O)n(-c2ccc(NCCCN3CCOCC3)c(F)c2)c(C)n1 [Example 30, 3-(3-fluoro-4-((3-morpholinopropyl)amino)phenyl)-2,6-dimethylpyrimidin-4(3H)-one] | 540 µM | 13.18 multiple
Cc1cc(=O)n(-c2ccc(N3CCOCC3)c(F)c2)c(COC2CCCCC2)n1 [Example 58, 2-((cyclohexyloxy)methyl)-3-(3-fluoro-4-morpholinophenyl)-6-methylpyrimidin-4(3H)-one] | 290 µM | 26.37 multiple
Cc1cc(=O)n(-c2ccc(N(C)CCN3CCOCC3)c(F)c2)c(C)n1 [Example 28, 3-(3-fluoro-4-(methyl(2-morpholinoethyl)amino)phenyl)-2,6-dimethylpyrimidin-4(3H)-one] | 4990 µM | 1.60 multiple
CCCCCCN(CCCCCC)c1ccc(-n2c(C)nc(C)cc2=O)cc1F [Example 24, 3-(4-(di-n-hexylamino)-3-fluorophenyl)-2,6-dimethylpyrimidin-4(3H)-one] | 40 µM | 60.63 multiple
Cc1cc(=O)n(-c2ccc(NCCN3CCOCC3)c(F)c2)c(COc2cccc(F)c2)n1 [Example 57, 3-(3-fluoro-4-((2-morpholinoethyl)amino)phenyl)-2-((3-fluorophenoxy)methyl)-6-methylpyrimidin-4(3H)-one] | 100 µM | 84.22 multiple
C#Cc1cccc(OCc2nc(C)cc(=O)n2-c2ccc(N3CCOCC3)c(F)c2)c1 [Example 68] | 110 µM | 26.80 multiple
CCCCN(CCCC)c1ccc(-n2c(C)nc(C)cc2=O)cc1F [Example 22, 3-(4-(di-n-butylamino)-3-fluorophenyl)-2,6-dimethylpyrimidin-4(3H)-one] | 190 µM | 39.47 multiple
CCCCCCN(CCCCCC)c1ccc(-n2c(C)nc(C)cc2=O)cc1Br [Example 41, 3-(3-bromo-4-(dihexylamino)phenyl)-2,6-dimethylpyrimidin-4(3H)-one] | 60 µM | 32.65 multiple
Cc1cc(=O)n(-c2ccc(N3CCOCC3)c(F)c2)c(CCc2cccc(F)c2)n1 [Example 52, 3-(3-fluoro-4-morpholinophenyl)-2-(3-fluorophenethyl)-6-methylpyrimidin-4(3H)-one] | 180 µM | 14.15 multiple
Cc1ccc(=O)n(-c2ccc(CN3CCOCC3)c(F)c2)c1 [Example 1, 1-(3-fluoro-4-(morpholinomethyl)phenyl)-5-methylpyridin-2(1H)-one] | 400 µM | 16.6 multiple
CCN(CC)c1ccc(-n2c(C)nc(C)cc2=O)cc1F [Example 8, 3-(4-(diethylamino)-3-fluorophenyl)-2,6-dimethylpyrimidin-4(3H)-one] | 1660 µM | 2.31 multiple
Cc1cc(=O)n(-c2ccc(N3CCOCC3)c(F)c2)c(CSc2cccc(F)c2)n1 [Example 51, 3-(3-fluoro-4-morpholinophenyl)-2-(((3-fluorophenyl)thio)methyl)-6-methylpyrimidin-4(3H)-one] | 100 µM | 25.14 multiple
CCCOCCN(CCOCCC)c1ccc(-n2c(C)nc(C)cc2=O)cc1F [Example 32, 3-(4-(bis(2-propoxyethyl)amino)-3-fluorophenyl)-2,6-dimethylpyrimidin-4(3H)-one] | 810 µM | 9.60 multiple
Cc1cc(=O)n(-c2ccc(-n3cccn3)c(F)c2)c(C)n1 [Example 19, 3-(3-fluoro-4-(1H-pyrazol-1-yl)phenyl)-2,6-dimethylpyrimidin-4(3H)-one] | 1190 µM | 3.21 multiple

Structure (SMILES) | IC50 | The ratio with PFD (multiple)
Cc1cc(=O)n(-c2ccc(OCCN3CCOCC3)c(F)c2)c(COc2cccc(F)c2)n1 [Example 56, 3-(3-fluoro-4-(2-morpholinoethoxy)phenyl)-2-((3-fluorophenoxy)methyl)-6-methylpyrimidin-4(3H)-one] | 100 µM | 54.14 multiple
Cc1cc(=O)n(-c2ccc(N3CCOCC3)c(F)c2)c(C(F)(F)Oc2cccc(F)c2)n1 [Example 69, 2-(difluoro(3-fluorophenoxy)methyl)-3-(3-fluoro-4-morpholinophenyl)-6-methylpyrimidin-4(3H)-one] | 90 µM | 42.03 multiple
CCCCCCN(CCCCCC)c1ccc(-n2c(C)nc(C)cc2=O)cc1Cl [Example 40, 3-(3-chloro-4-(dihexylamino)phenyl)-2,6-dimethylpyrimidin-4(3H)-one] | 60 µM | 127.50 multiple
Cc1cc(=O)n(-c2ccc(N3CCOCC3)c(F)c2)c(COc2cccnc2)n1 [Example 59, 3-(3-fluoro-4-morpholinophenyl)-6-methyl-2-((pyridin-3-yloxy)methyl)pyrimidin-4(3H)-one] | 300 µM | 25.50 multiple
Cc1cc(=O)n(-c2ccc(N(CC(C)C)CC(C)C)c(F)c2)c(C)n1 [Example 23, 3-(4-(diisobutylamino)-3-fluorophenyl)-2,6-dimethylpyrimidin-4(3H)-one] | 110 µM | 30.31 multiple
Cc1cc(=O)n(-c2ccc(N3CCOCC3)c(Cl)c2)c(C)n1 [Example 46, 3-(3-chloro-4-morpholinophenyl)-2,6-dimethylpyrimidin-4(3H)-one] | 1070 µM | 2.80 multiple
CCCCCCNc1ccc(-n2c(C)nc(C)cc2=O)cc1F [Example 33, 3-(3-fluoro-4-(hexylamino)phenyl)-2,6-dimethylpyrimidin-4(3H)-one] | 300 µM | 25.70 multiple
Cc1cc(=O)n(-c2cnc(-c3ccc(N4CCOCC4)cc3)s2)c(C)n1 [Example 15, 2,6-dimethyl-3-(2-(4-morpholinophenyl)thiazol-5-yl)pyrimidin-4(3H)-one] | 970 µM | 3.97 multiple
Cc1cc(=O)n(-c2ccc(NCCc3cc4ccccc4[nH]3)c(F)c2)c(C)n1 [Example 38, 3-(4-((2-(1H-indol-2-yl)ethyl)amino)-3-fluorophenyl)-2,6-dimethylpyrimidin-4(3H)-one] | 490 µM | 15.80 multiple
Cc1cc(=O)n(-c2ccc(NCCCn3cnnn3)c(F)c2)c(C)n1 [Example 37, 3-(4-((3-(1H-tetrazol-1-yl)propyl)amino)-3-fluorophenyl)-2,6-dimethylpyrimidin-4(3H)-one] | 4310 µM | 1.80 multiple
COc1cccc(OCc2nc(C)cc(=O)n2-c2ccc(N3CCOCC3)c(F)c2)c1 [Example 71, 3-(3-fluoro-4-morpholinophenyl)-2-((3-methoxyphenoxy)methyl)-6-methylpyrimidin-4(3H)-one] | 80 µM | 48.76 multiple
Cc1cc(=O)n(-c2ccc(N3CCOCC3=O)c(F)c2)c(COc2cccc(F)c2)n1 [Example 66, 4-(2-fluoro-4-(2-((3-fluorophenoxy)methyl)-4-methyl-6-oxopyrimidin-1(6H)-yl)phenyl) morpholin-3-one] | 230 µM | 14.95 multiple
Cc1cc(=O)n(-c2ccc(N3CCOCC3)c(F)c2)c(C)n1 [Example 7, 3-(3-fluoro-4-morpholinophenyl)-2,6-dimethylpyrimidin-4(3H)-one] | 740 µM | 1.35 multiple
Cc1cc(=O)n(-c2ccc(N3CCOCC3)c(C(F)(F)F)c2)c(C)n1 [Example 47, 2,6-dimethyl-3-(4-morpholino-3-(trifluoromethyl)phenyl)pyrimidin-4(3H)-one] | 930 µM | 3.92 multiple
Cc1cc(=O)n(-c2ccc(NCCN3CCCCC3)c(F)c2)c(C)n1 [Example 36, 3-(3-fluoro-4-((2-(piperidin-1-yl)ethyl)amino)phenyl)-2,6-dimethylpyrimidin-4(3H)-one] | 2700 µM | 2.90 multiple
Cc1cc(=O)n(-c2ccc(N3CCOCC3)c(F)c2)c(CCCOc2cccc(F)c2)n1 [Example 53, 3-(3-fluoro-4-morpholinophenyl)-2-(3-(3-fluorophenoxy)propyl)-6-methylpyrimidin-4(3H)-one] | 500 µM | 15.49 multiple
Cc1cc(=O)n(-c2ccc(N3CCN(C)CC3)c(F)c2)c(C)n1 [Example 12, 3-(3-fluoro-4-(4-methylpiperazin-1-yl)phenyl)-2,6-dimethylpyrimidin-4(3H)-one] | 1400 µM | 2.74 multiple
